Data on 27 compounds can be found in ChEMBL document CHEMBL5257143, “Discovery of First-in-Class Small Molecule Inhibitors of Lymphocyte Activation Gene 3 (LAG-3)” (ACS Med Chem Lett, 2023).

Bounds are passed on as bounds.

A short description of experiment [1]: Inhibition of LAG-3-MHCII (unknown origin) interaction incubated for 2 hrs by TR-FRET assay. Also noted: species or system Homo sapiens. Background: TR-FRET usually uses a lanthanide donor and a delayed reading to cut background.
Experiment [2] in a line: Inhibition of LAG-3/FGL1 (unknown origin) interaction incubated for 2 hrs by TR-FRET assay. The arrangement: species or system Homo sapiens.
For experiment [3], the species on record is Homo sapiens. The experiment can be described thus: Inhibition of LAG-3-MHCII (unknown origin) interaction at 10 to 30 uM incubated for 2 hrs by TR-FRET assay relative to control. The following applies: dose 10-30 µM.
Experiment [4] is described as follows: Inhibition of LAG-3/FGL1 (unknown origin) interaction by ELISA analysis. Also noted: species or system Homo sapiens. (In general: An ELISA detects its analyte on a solid surface through an enzyme-linked reagent.)
The subject of experiment [5] is Jurkat T. In words: (§1) Inhibition of LAG-3-MHCII interaction in human Jurkat T cells expressing human LAG-3/luciferase reporter co-cultured with MHCII antigen presenting cells assessed as increase in luminescence by Bio-Glo reagent based assay. It is filed as cell-based. A general note: Reporter assays use an easily measured gene product as a stand-in for the process of interest.

A short description of experiment [6]: as §1. It is filed as cell-based.

One may read the IC50 as the concentration that inhibits the measured activity by half. As a reminder, the inhibition is the change of the read-out against control, counted positive when it falls.

With `Cc1cc(C(=O)COc2ccccc2C(=O)Nc2ccccc2)c(C)[nH]1`, the 50% inhibitory concentration (IC50) in experiment [1] and in experiment [2] was above 50 µM in each case.
On to `Cc1cc(C(=O)COc2ccc(C(N)=O)cc2)c(C)n1C`, for which the IC50 in experiment [1] and in experiment [2] was above 50 µM in each case.
As for `CC(=O)Nc1cccc(OCC(=O)c2cc(C)n(-c3ccc(C)c(C)c3)c2C)c1`, the half-maximal inhibitory concentration (IC50) in experiment [1] is 31.4 µM; in experiment [2], 25.5 µM.
The corresponding values for `CCCn1c(C)cc(C(=O)COc2ccccc2NC(C)=O)c1C` are above 50 µM and above 50 µM.
On to `CC(=O)Nc1ccc(OCC(=O)c2cc(C)n(CCc3ccccc3)c2C)cc1`, for which the IC50 in experiment [1] is 23.4 µM; in experiment [2], 28.5 µM.
In the case of `C=CCn1c(C)cc(C(=O)COc2ccc(NC(=O)c3cccc([N+](=O)[O-])c3)cc2)c1C`, the half-inhibitory concentration (IC50) in experiment [1] and in experiment [2] was above 50 µM in each case.
Turning to `CCCn1c(C)cc(C(=O)COc2ccc(NC(C)=O)cc2)c1C`, the IC50 in experiment [1] and in experiment [2] was above 50 µM in each case.
For the compound `COc1ccccc1C(=O)Nc1ccc(OCC(=O)c2cc(C)n(C)c2C)cc1`, the IC50 stood at 25.7 µM in experiment [1] and 35.4 µM in experiment [2].
For `Cc1cc(C(=O)COc2ccc(N3CCCC3=O)cc2)c(C)n1C1CC1`, in that order: 17.2 µM and 20.4 µM.
Regarding `C=CCn1c(C)cc(C(=O)COc2ccccc2C(=O)Nc2ccccc2)c1C`, the IC50 in experiment [1] and in experiment [2] was above 50 µM in each case.
Turning to `COCCCn1c(C)cc(C(=O)COc2ccc(NC(C)=O)cc2)c1C`, the half-maximal inhibitory concentration (IC50) in experiment [1] and in experiment [2] was above 50 µM in each case.
For `CC(=O)Nc1ccc(OCC(=O)c2cc(C)n(-c3ccc(Cl)c(Cl)c3)c2C)cc1`, the IC50 in experiment [1] came out at 11.2 µM; in experiment [2] it was 10.3 µM.
In experiment [3], `Cc1cc(C(=O)COc2ccc(NC(=O)c3ccco3)cc2)c(C)n1C` displayed an inhibition above 90%. Also, the results for the IC50 in experiment [4], in experiment [1] and in experiment [2] were 18.5 µM, 14.8 µM and 16.7 µM, respectively.
Regarding `CCC(=O)c1ccc(OCC(=O)c2cc(C)n(Cc3ccco3)c2C)cc1`, the IC50 in experiment [1] was determined as 20.4 µM; in experiment [2], 28.7 µM.
The corresponding values for `CC(=O)Nc1ccc(OCC(=O)c2cc(C)n(C(C)C)c2C)cc1` are above 50 µM and above 50 µM.
For `CC(=O)Nc1ccc(OCC(=O)c2cc(C)n(CCc3ccc(F)cc3)c2C)cc1`, in that order: 28.4 µM and 21.4 µM.
For `Cc1cc(C(=O)COc2ccc(C(N)=O)cc2)c(C)n1CCc1ccc(F)cc1`, in that order: 18.3 µM and 22.4 µM.
On to `CC(=O)Nc1ccccc1OCC(=O)c1cc(C)n(CCc2ccc(F)cc2)c1C`, for which the concentration for half-maximal inhibition (IC50) in experiment [1] turned out to be 28.4 µM; in experiment [2], 32.7 µM.
As for `Cc1cc(C(=O)COc2ccc(NC(=O)c3ccco3)cc2)c(C)n1Cc1ccccc1`, the inhibition entry in experiment [5] was “Dose-Dependent Effect”. Besides, the values for the 50% inhibitory concentration (IC50) in experiment [6], in experiment [1] and in experiment [2] were 6.95 µM, 4.21 µM and 6.52 µM, respectively.
With `Cc1cc(C(=O)COc2ccc(NC(=O)c3ccccc3)cc2)c(C)n1Cc1ccco1`, the half-inhibitory concentration (IC50) in experiment [1] was found to be 9.38 µM; in experiment [2], 9.94 µM.
The corresponding values for `CC(=O)Nc1ccc(OCC(=O)c2cc(C)n(Cc3ccccc3)c2C)cc1` are 18.3 µM and 20.4 µM.
Consider `Cc1ccc(-n2c(C)cc(C(=O)COc3ccc(NC(=O)c4ccc(C(C)(C)C)cc4)cc3)c2C)cc1`, for which the IC50 in experiment [1] was found to be 19.3 µM; in experiment [2], 18.2 µM.
For `Cc1cc(C(=O)COc2ccc(NC(=O)c3ccco3)cc2)c(C)n1-c1ccccc1`, the IC50 in experiment [1] was found to be 8.36 µM; in experiment [2] it was 13.7 µM.
For `CC(=O)Nc1ccc(OCC(=O)c2cc(C)n(-c3ccc(OC(F)F)cc3)c2C)cc1`, in that order: 12.4 µM and 16.5 µM.
As to `Cc1ccc(-n2c(C)cc(C(=O)COc3ccc(C(N)=O)cc3)c2C)cc1`, the IC50 was determined as 26.9 µM in experiment [1] and 29.4 µM in experiment [2].
Take `Cc1cc(C(=O)COc2ccccc2C(=O)Nc2ccccc2)c(C)n1CC1CCCO1` (stereo not drawn): the IC50 was determined as 18.4 µM in experiment [1] and 14.2 µM in experiment [2].
On to `CC(=O)Nc1ccc(OCC(=O)c2cc(C)n(-c3ccccc3F)c2C)cc1`, for which the values for the concentration for half-maximal inhibition (IC50) in experiment [1] and in experiment [2] were 21.3 µM and 29.4 µM, respectively.
